Measurements published in the supplement of paper PMC10307832.

What was measured:
Experiment in all cases: relative viability (nuclei count vs DMSO), 5 days (fraction); higher = more cells survive
AZD1208 + Pemetrexed = compound: N[C@@H]1CCCN(c2c(/C=C3\SC(=O)NC3=O)cccc2-c2ccccc2)C1 [AZD1208] + Nc1nc2[nH]cc(CCc3ccc(C(=O)N[C@@H](CCC(=O)O)C(=O)O)cc3)c2c(=O)[nH]1 [Pemetrexed] (partner 0.2 µM)
Method in brief: (§1)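 Dosing by pin tool came one day after lung cancer cell lines were seeded in 1536-well plates, using either one drug or a fixed anchor-drug dose plus five library-drug doses (not always all listed) in √10 steps. After 5 days, nuclei were counted on 4× images. Relative viability is treated-well nuclei count divided by vehicle-well nuclei count, and values are medians of duplicate plates.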

AZD1208 + Pictilisib = compound: N[C@@H]1CCCN(c2c(/C=C3\SC(=O)NC3=O)cccc2-c2ccccc2)C1 [AZD1208] + CS(=O)(=O)N1CCN(Cc2cc3nc(-c4cccc5[nH]ncc45)nc(N4CCOCC4)c3s2)CC1 [Pictilisib] (partner 1 µM)
Method in brief: as §1

XMD14-99 + Palbociclib = compound: CN1CCN(CC1)C2=CC(=C(C=C2)NC3=NC(=C(S3)C(=O)C4=C(C=CC=C4Cl)Cl)N)OC [XMD14-99] + CC(=O)c1c(C)c2cnc(Nc3ccc(N4CCNCC4)cn3)nc2n(C2CCCC2)c1=O [Palbociclib] (partner 0.5 µM)
Method in brief: as §1

XMD14-99 + Alpelisib = compound: CN1CCN(CC1)C2=CC(=C(C=C2)NC3=NC(=C(S3)C(=O)C4=C(C=CC=C4Cl)Cl)N)OC [XMD14-99] + Cc1nc(NC(=O)N2CCC[C@H]2C(N)=O)sc1-c1ccnc(C(C)(C)C(F)(F)F)c1 [Alpelisib] (partner 2 µM)
Method in brief: as §1

| Cell Line | relative viability (AZD1208 + Pemetrexed; first compound 0.08 µM) | relative viability (AZD1208 + Pemetrexed; first compound 0.253 µM) | relative viability (AZD1208 + Pemetrexed; first compound 0.8 µM) | relative viability (AZD1208 + Pemetrexed; first compound 2.53 µM) | relative viability (AZD1208 + Pemetrexed; first compound 8 µM) | relative viability (AZD1208 + Pictilisib; first compound 0.08 µM) | relative viability (AZD1208 + Pictilisib; first compound 0.253 µM) | relative viability (AZD1208 + Pictilisib; first compound 0.8 µM) | relative viability (AZD1208 + Pictilisib; first compound 2.53 µM) | relative viability (AZD1208 + Pictilisib; first compound 8 µM) | relative viability (XMD14-99 + Palbociclib; first compound 0.08 µM) | relative viability (XMD14-99 + Palbociclib; first compound 0.8 µM) | relative viability (XMD14-99 + Palbociclib; first compound 2.53 µM) | relative viability (XMD14-99 + Palbociclib; first compound 8 µM) | relative viability (XMD14-99 + Alpelisib; first compound 0.08 µM) | relative viability (XMD14-99 + Alpelisib; first compound 0.8 µM) | relative viability (XMD14-99 + Alpelisib; first compound 2.53 µM) | relative viability (XMD14-99 + Alpelisib; first compound 8 µM) |
| --- | --- | --- | --- | --- | --- | --- | --- | --- | --- | --- | --- | --- | --- | --- | --- | --- | --- | --- |
| HOP-62 | 0.298 | 0.345 | 0.28 | 0.289 | 0.269 | 0.658 | 0.638 | 0.658 | 0.455 | 0.717 | 0.435 | 0.41 | 0.538 | 0.443 | 0.883 | 1 | 1.04 | 0.818 |
| LOU-NH91 | 0.357 | 0.409 | 0.421 | 0.357 | 0.434 | 0.503 | 0.485 | 0.503 | 0.494 | 0.517 | 0.509 | 0.548 | 0.575 | 0.499 | 0.72 | 0.804 | 0.735 | 0.622 |
| NCI-H23 | 0.604 | 0.698 | 0.632 | 0.704 | 0.703 | 0.413 | 0.561 | 0.327 | 0.358 | 0.335 | 0.519 | 0.541 | 0.529 | 0.454 | 0.608 | 0.657 | 0.69 | 0.491 |
| PC-3 [JPC-3] | 1.22 | 1.04 | 1.09 | 1.18 | 1.2 | 0.788 | 0.762 | 0.672 | 0.659 | 0.684 | 0.574 | 0.501 | 0.59 | 0.538 | 1.06 | 0.947 | 0.916 | 0.893 |
| NCI-H1437 | 0.302 | 0.307 | 0.327 | 0.355 | 0.322 | 0.369 | 0.388 | 0.271 | 0.246 | 0.247 | 0.307 | 0.311 | 0.252 | 0.221 | 0.881 | 0.804 | 0.787 | 0.671 |
| NCI-H520 | 0.685 | 0.703 | 0.555 | 0.524 | 0.446 | 0.238 | 0.278 | 0.201 | 0.185 | 0.184 | 0.174 | 0.186 | 0.239 | 0.222 | 0.83 | 0.843 | 0.83 | 0.707 |
| NCI-H1666 | 0.826 | 0.874 | 0.792 | 0.823 | 0.896 | 0.359 | 0.553 | 0.353 | 0.309 | 0.374 | 0.626 | 0.564 | 0.63 | 0.666 | 0.866 | 0.94 | 0.805 | 0.699 |
| NCI-H1651 | 0.626 | 0.57 | – | 0.569 | 0.555 | 0.395 | 0.556 | 0.394 | 0.38 | 0.408 | 0.535 | 0.535 | 0.535 | 0.522 | 0.841 | 0.836 | 1.09 | 0.917 |
| NCI-H1755 | 0.451 | 0.457 | 0.532 | 0.426 | 0.413 | 0.377 | 0.441 | 0.368 | 0.326 | 0.283 | 0.477 | 0.458 | 0.474 | 0.476 | 0.945 | 0.908 | 0.886 | 0.648 |
| HARA | 0.251 | 0.206 | 0.292 | 0.282 | 0.227 | 0.349 | 0.373 | 0.452 | 0.286 | 0.363 | 0.291 | 0.25 | 0.281 | 0.204 | 0.872 | 0.784 | 0.734 | 0.481 |
| NCI-H647 | 0.19 | 0.195 | 0.17 | 0.188 | 0.165 | 0.463 | 0.371 | 0.37 | 0.339 | 0.364 | 0.408 | 0.459 | 0.505 | 0.364 | 1.05 | 1.07 | 0.937 | 0.933 |
